Test results published in patent US9149038B2, “4-amino-6-(heterocyclic)picolinates and 6-amino-2-(heterocyclic)pyrimidine-4-carboxylates and their use as herbicides” (Dow AgroSciences LLC, priority 2013, dated 2015).
Read-outs that look alike come from different tables or passages of the source.

Tests used:
[1] = tested on: Key Broadleaf Weed and Crop Species; experiment: Post-Emergent Test II: postemergent herbicidal activity, visual rating after 14 d (Table 7); format: in vivo; details: post-emergence, 336 h; for pest or weed control at 35 g/ha: 35 g ai/ha; for pest or weed control at 70 g/ha: 70 g ai/ha; for pest or weed control at 140 g/ha: 140 g ai/ha
Procedure, shortened: (§1)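 Plants were raised in a greenhouse for 7-21 d and treated once at the first or second true leaf stage. Compounds, dissolved in 97:3 acetone:DMSO then diluted into an aqueous acetone/isopropanol/crop oil/Triton X-155 carrier, were applied by overhead track sprayer at 187 L/ha. After 14 d with subirrigation, injury was scored visually from 0 (none) to 100 (complete kill).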

[2] = tested on: Key Grass and Sedge Weeds as well as Grass Crops; experiment: Post-Emergent Test II: postemergent herbicidal activity, visual rating after 14 d (Table 8); format: in vivo; details: post-emergence, 336 h; for pest or weed control at 35 g/ha: 35 g ai/ha; for pest or weed control at 70 g/ha: 70 g ai/ha; for pest or weed control at 140 g/ha: 140 g ai/ha
Procedure, shortened: as §1

[3] = ABUTH: velvetleaf (Abutilon theophrasti), read-out: Visual Growth Reduction (%) 14 Days After Application ABUTH
[4] = AMARE: redroot pigweed (Amaranthus retroflexus), read-out: Visual Growth Reduction (%) 14 Days After Application AMARE
[5] = BRSNN: oilseed rape, canola (Brassica napus), read-out: Visual Growth Reduction (%) 14 Days After Application BRSNN
[6] = CHEAL: lambsquarters (Chenopodium album), read-out: Visual Growth Reduction (%) 14 Days After Application CHEAL
[7] = EPHHL: wild poinsettia (Euphorbia heterophylla), read-out: Visual Growth Reduction (%) 14 Days After Application EPHHL
[8] = HELAN: sunflower (Helianthus annuus), read-out: Visual Growth Reduction (%) 14 Days After Application HELAN
[9] = barnyardgrass (Echinochloa crus-galli), read-out: Visual Growth Reduction (%) 14 Days After Application, ECHCG
[10] = giant foxtail (Setaria faberi), read-out: Visual Growth Reduction (%) 14 Days After Application, SETFA
[11] = maize, corn (Zea mays), read-out: Visual Growth Reduction (%) 14 Days After Application, ZEAMX
[12] = rice (Oryza sativa), read-out: Visual Growth Reduction (%) 14 Days After Application, ORYSA
[13] = wheat, spring (Triticum aestivum), read-out: Visual Growth Reduction (%) 14 Days After Application, TRZAS
[14] = yellow nutsedge (Cyperus esculentus), read-out: Visual Growth Reduction (%) 14 Days After Application, CYPES

## Nc1cc(-c2ccc(Cl)c3c2OC(F)(F)O3)nc(C(=O)O)c1Cl [Compound 87]
[1]; [3]
  pest or weed control at 35 g/ha: 75 to 84%
  pest or weed control at 70 g/ha: 85 to 94%
  pest or weed control at 140 g/ha: 85 to 94%
[1]; [4]
  pest or weed control at 35 g/ha: 95 to 100%
  pest or weed control at 70 g/ha: 95 to 100%
  pest or weed control at 140 g/ha: 95 to 100%
[1]; [5]
  pest or weed control at 35 g/ha: 60 to 74%
  pest or weed control at 70 g/ha: 75 to 84%
  pest or weed control at 140 g/ha: 85 to 94%
[1]; [6]
  pest or weed control at 35 g/ha: 95 to 100%
  pest or weed control at 70 g/ha: 95 to 100%
  pest or weed control at 140 g/ha: 95 to 100%
[1]; [7]
  pest or weed control at 35 g/ha: 0 to 29%
  pest or weed control at 70 g/ha: 0 to 29%
  pest or weed control at 140 g/ha: 0 to 29%
[1]; [8]
  pest or weed control at 35 g/ha: 75 to 84%
  pest or weed control at 70 g/ha: 75 to 84%
  pest or weed control at 140 g/ha: 75 to 84%
[2]; [9]
  pest or weed control at 35 g/ha: 0 to 29%
  pest or weed control at 70 g/ha: 0 to 29%
  pest or weed control at 140 g/ha: 0 to 29%
[2]; [10]
  pest or weed control at 35 g/ha: 0 to 29%
  pest or weed control at 70 g/ha: 0 to 29%
  pest or weed control at 140 g/ha: 0 to 29%
[2]; [11]
  pest or weed control at 35 g/ha: 0 to 29%
  pest or weed control at 70 g/ha: 0 to 29%
  pest or weed control at 140 g/ha: 0 to 29%
[2]; [12]
  pest or weed control at 35 g/ha: 0 to 29%
  pest or weed control at 70 g/ha: 0 to 29%
  pest or weed control at 140 g/ha: 0 to 29%
[2]; [13]
  pest or weed control at 35 g/ha: 0 to 29%
  pest or weed control at 70 g/ha: 0 to 29%
  pest or weed control at 140 g/ha: 0 to 29%
[2]; [14]
  pest or weed control at 35 g/ha: 0 to 29%
  pest or weed control at 70 g/ha: 0 to 29%
  pest or weed control at 140 g/ha: 0 to 29%
